Data published in ChEMBL document CHEMBL4017456, “The discovery of tetrahydropyridine analogs as hNav1.7 selective inhibitors for analgesia” (Bioorg Med Chem Lett, 2017).
Each block holds one compound with its values, some of them ahead of it.

How the values were obtained:
Plasma [1] = assay: Plasma concentration in Sprague-Dawley rat at 100 mg/kg administered via oral gavage by LC-MS/MS method; type: ADME, organism-based; settings: in vivo
Plasma [2] = assay: Free plasma concentration in Sprague-Dawley rat at 100 mg/kg administered via oral gavage by LC-MS/MS method; type: ADME, organism-based; settings: in vivo
[3] = Ratio of drug level in brain to plasma in Sprague-Dawley rat at 0.5 mg/kg, iv or 2 mg/kg, po by LC-MS/MS analysis; type: ADME, organism-based; settings: read-out: BPR
in vivo [4] = settings: Sprague-Dawley, rat, plasma, iv, 0.5 mg/kg
in vivo [5] = settings: Sprague-Dawley, rat, plasma, iv, 0.5 mg/kg; remark: listed apart in the source
in vivo [6] = settings: Sprague-Dawley, rat, iv, 0.5 mg/kg
in vivo [7] = settings: Sprague-Dawley, rat, iv, 0.5 mg/kg; remark: listed apart in the source
in vivo [8] = settings: Sprague-Dawley, rat, plasma, po, 2 mg/kg
in vivo [9] = settings: Sprague-Dawley, rat, plasma, po, 2 mg/kg; remark: listed apart in the source
in vivo [10] = settings: Sprague-Dawley, rat, plasma, po, 2 mg/kg; remark: listed apart in the source
[11] = Half life in Sprague-Dawley rat plasma at 1 mg/kg, iv administered as single bolus dose by LC-MS/MS analysis; type: ADME, organism-based
[12] = Volume of distribution at steady state in Sprague-Dawley rat plasma at 1 mg/kg, iv administered as single bolus dose by LC-MS/MS analysis; type: ADME, organism-based; settings: read-out: Vdss
[13] = Clearance in Sprague-Dawley rat at 1 mg/kg, iv administered as single bolus dose by LC-MS/MS analysis; type: ADME, organism-based; settings: in vivo
[14] = AUC (0 to last) in Sprague-Dawley rat plasma at 1 mg/kg, iv administered as single bolus dose by LC-MS/MS analysis; type: ADME, organism-based; set-up: dose 1 mg/kg, route intravenous, time 0 - last
[15] = Ratio of drug level in brain to plasma in Sprague-Dawley rat at 1 mg/kg, iv or 10 mg/kg, po by LC-MS/MS analysis; type: ADME, organism-based; settings: read-out: BPR
in vivo [16] = settings: Sprague-Dawley, rat, plasma, po, 10 mg/kg
in vivo [17] = settings: Sprague-Dawley, rat, plasma, po, 10 mg/kg; remark: listed apart in the source
in vivo [18] = settings: Sprague-Dawley, rat, plasma, po, 10 mg/kg; remark: listed apart in the source
in vitro = settings: human, Caco-2

concentration (Plasma [1]): 82.1 µM | Cp(f) (Plasma [2]): 0.41 µM
Structure (SMILES): O=S(=O)(Nc1cscn1)c1cc(Cl)c(OC[C@H]2NCCC=C2c2ccc(F)cc2)cc1F

concentration (Plasma [1]): 55.8 µM | Cp(f) (Plasma [2]): 0.279 µM
Structure (SMILES): Nc1[nH]ncc1-c1cc(Cl)ccc1Oc1cc(F)c(S(=O)(=O)Nc2cscn2)cc1Cl [PF-05089771]

Kp [3]: 0.26 | half-life (in vivo [4]): 3.6 h | Vd (in vivo [5]): 8.9 L/kg | clearance (in vivo [6]): 39.2 mL/min/kg | AUC(0-t) (in vivo [7]): 0.34 µM·h | Tmax (in vivo [8]): 1.7 h | AUC(0-t) (in vivo [9]): 0.25 µM·h | bioavailability (in vivo [10]): 18.4%
Structure (SMILES): N[C@@H]1CCC=C(c2ccc(F)cc2)[C@H]1COc1cc(F)c(S(=O)(=O)Nc2cscn2)cc1Cl

half-life [11]: 2.7 h | Vd [12]: 0.6 L/kg | clearance [13]: 4.5 mL/min/kg | AUC(0-t) [14]: 3.56 µM·h | Kp [15]: 0.017 | Tmax (in vivo [16]): 3.8 h | AUC(0-t) (in vivo [17]): 41.8 µM·h | bioavailability (in vivo [18]): 64.8% | Papp A→B (in vitro): 3.2 ×10⁻⁶ cm/s
Structure (SMILES): O=S(=O)(Nc1cscn1)c1cc(Cl)c(OCC2NCCC=C2c2ccc(F)cc2)cc1F (stereo unspecified)
